This is an account of results in ChEMBL document CHEMBL2331299, “Basic N-interlinked imipramines show apoptotic activity against malignant cells including Burkitt's lymphoma” (Bioorg Med Chem Lett, 2013).

Test [1] deals with DG-75. The test can be described thus: Induction of apoptosis in human DG75 cells assessed as cell death at 2.5 uM measured after 24 hrs by flow cytometry. The class given is functional, cell-based. Background: A flow cytometer gives signals particle by particle.
Test [2] deals with HeLa. Description: Induction of apoptosis in human HeLa cells assessed as cell death at 2.5 uM in presence of NAC ROS inhibitor. The class given is functional, cell-based.
Test [3] deals with HeLa. Description: Induction of apoptosis in human HeLa cells assessed as cell death at 2.5 uM after 8 hrs by flow cytometry. Type of test: functional, cell-based.
In test [4] the test system is HeLa. The test can be described thus: Induction of apoptosis in human HeLa cells assessed as increase in intracellular cysteine proteases. The class given is functional, cell-based.
Test [5] deals with HeLa. The test can be described thus: Induction of apoptosis in human HeLa cells assessed as cell death at 2.5 uM after 24 hrs by flow cytometry (reference value: 7 +/- 1.9%). Type of test: functional.
The test system of test [6] is MUTU-I. The test can be described thus: Induction of apoptosis in human MUTU-I cells assessed as increase in caspase 3/7 activation by luminescence plate reader. The class given is functional, cell-based.
Test [7] is described as follows: Reduction in cell viability of human MUTU-I cells after 24 hrs by Alamar blue viability assay. Type of test: functional, cell-based. In general terms: Alamar Blue is a resazurin reagent that responds to reducing activity.
The subject of test [8] is DG-75. The test can be described thus: Induction of apoptosis in human DG75 cells assessed as increase in caspase 3/7 activation by luminescence plate reader. The class given is functional, cell-based.
Test [9] concerns MUTU-I. Description: Induction of apoptosis in human MUTU-I cells assessed as PARP cleavage by Western blotting analysis. The class given is functional, cell-based. On the technique in general: A western blot detects proteins with antibodies after separation by electrophoresis.
Test [10] has as its system DG-75. The test can be described thus: Induction of apoptosis in human DG75 cells assessed as PARP cleavage by Western blotting analysis. Type of test: functional, cell-based.
The subject of test [11] is DG-75. Description: Induction of apoptosis in human DG75 cells assessed as cell death at 2.5 uM in presence of NAC ROS inhibitor. The class given is functional, cell-based.
The target in test [12] is Sodium-dependent serotonin transporter (Homo sapiens, UniProt P31645). Description: Inhibition of human SERT expressed in HEK293-MSR cells by 5-HT uptake assay. Type of test: cell-based.
Sodium-dependent serotonin transporter, sequence (P31645 whole entry): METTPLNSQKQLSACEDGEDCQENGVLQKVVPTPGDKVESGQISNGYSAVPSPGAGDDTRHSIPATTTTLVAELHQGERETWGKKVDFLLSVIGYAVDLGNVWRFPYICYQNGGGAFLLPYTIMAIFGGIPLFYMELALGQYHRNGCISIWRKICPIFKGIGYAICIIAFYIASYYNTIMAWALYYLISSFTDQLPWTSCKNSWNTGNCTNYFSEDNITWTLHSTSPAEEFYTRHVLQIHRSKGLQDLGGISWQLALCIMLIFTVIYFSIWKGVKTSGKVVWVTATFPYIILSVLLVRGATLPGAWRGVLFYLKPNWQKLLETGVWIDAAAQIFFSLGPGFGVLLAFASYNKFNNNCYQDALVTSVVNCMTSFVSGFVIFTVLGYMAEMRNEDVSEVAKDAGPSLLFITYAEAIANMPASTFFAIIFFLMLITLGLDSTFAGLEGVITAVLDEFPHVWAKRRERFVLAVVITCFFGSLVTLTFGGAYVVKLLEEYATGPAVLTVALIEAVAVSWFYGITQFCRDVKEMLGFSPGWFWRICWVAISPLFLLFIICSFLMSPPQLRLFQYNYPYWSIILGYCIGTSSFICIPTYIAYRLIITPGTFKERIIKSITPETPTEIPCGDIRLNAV
Test [13] deals with DG-75. The test can be described thus: Reduction in cell viability of human DG75 cells after 24 hrs by Alamar blue viability assay. The conditions noted are these: DG-75, 24 h. Type of test: functional, cell-based.
The subject of test [14] is MUTU-I. Description: Induction of apoptosis in human MUTU-I cells assessed as increase in intracellular cysteine proteases. The class given is functional, cell-based.
Test [15] concerns HeLa. The test can be described thus: Induction of apoptosis in human HeLa cells assessed as PARP cleavage by Western blotting analysis. The class given is functional, cell-based.
Test [16] concerns HeLa. Description: Induction of apoptosis in human HeLa cells assessed as decrease in cells at G2/M phase measured at 2.5 uM after 24 hrs by propidium iodide assay. The class given is functional, cell-based.
The subject of test [17] is DG-75. The test can be described thus: Induction of apoptosis in human DG75 cells assessed as decrease in cells at G2/M phase measured at 2.5 uM after 24 hrs by propidium iodide assay. The class given is functional, cell-based.
The subject of test [18] is MUTU-I. The test can be described thus: Induction of apoptosis in human MUTU-I cells assessed as cell death at 2.5 uM in presence of NAC ROS inhibitor. Type of test: functional, cell-based.
Test [19] deals with HeLa. Description: Reduction in cell viability of human HeLa cells after 24 hrs by Alamar blue viability assay. Type of test: functional, cell-based.
Test [20] deals with DG-75. Description: Induction of apoptosis in human DG75 cells assessed as cell death at 2.5 uM after 24 hrs by flow cytometry (reference value: 0.8 +/- 0.25%). Type of test: functional.
Test [21] concerns MUTU-I. Description: Induction of apoptosis in human MUTU-I cells assessed as decrease in cells at G2/M phase measured at 2.5 uM after 24 hrs by propidium iodide assay. The class given is functional, cell-based.
In test [22] the test system is HeLa. The test can be described thus: Induction of apoptosis in human HeLa cells assessed as increase in caspase 3/7 activation by luminescence plate reader. Type of test: functional, cell-based.
Test [23] in a line: (§1) Induction of apoptosis in human MUTU-I cells assessed as cell death at 2.5 uM after 24 hrs by flow cytometry (reference value: 3.7 +/- 0.4%). Type of test: functional.
Test [24] relates to MUTU-I. Description: Induction of apoptosis in human MUTU-I cells assessed as cell death at 2.5 uM after 2 hrs by flow cytometry. The class given is functional, cell-based.
For test [25], the system named is MUTU-I. Described as §1. Type of test: functional.
The test system of test [26] is DG-75. Description: Induction of apoptosis in human DG75 cells assessed as increase in cells at G2/M phase measured at 2.5 uM after 24 hrs by propidium iodide assay. Type of test: functional, cell-based.

Calls of active or inactive are those of the source. The rule behind the calls is not given here.

As usually defined, the IC50 is the concentration that inhibits the measured activity by half. A higher IC50 goes with a need for much substance. Take `CN(CCCN1c2ccccc2CCc2ccccc21)CCOCCOCCN(C)CCCN1c2ccccc2CCc2ccccc21`: the result with DG-75 [1], in the test on HeLa [2], in the test with HeLa [3], with HeLa [4], with MUTU-I [6] and with MUTU-I [9] was Active. In addition, the outcome in the test on DG-75 [11], in the test on MUTU-I [14], in the test with HeLa [15], with HeLa [16], with DG-75 [17] and in the test with MUTU-I [18] was Active. Further, the outcome in the test with MUTU-I [21], in the test with HeLa [22] and with MUTU-I [24] was Active. Besides, the values for the Activity (with HeLa [5]; in the test on DG-75 [20]; in [23]) were 44.4%, 40.9% and 56.2%, respectively. Also, the IC50 stood at 0.62 µM in [7], 4.8 µM in [12], 1.51 µM with DG-75 [13] and 1.41 µM with HeLa [19]. The result in the test on DG-75 [8] and in the test with DG-75 [10] was inactive.

On to `CC(=O)O[C@H]1C(=O)[C@@]2(C)[C@H]([C@H](OC(=O)c3ccccc3)[C@]3(O)C[C@H](OC(=O)[C@H](O)[C@@H](NC(=O)c4ccccc4)c4ccccc4)C(C)=C1C3(C)C)[C@]1(OC(C)=O)CO[C@@H]1C[C@@H]2O`, for which the result with HeLa [5], with MUTU-I [25] and with DG-75 [26] was Active. In addition, in the test with DG-75 [20], the result was inactive.

Consider `CN(CCCN1c2ccccc2CCc2ccccc21)CCOCCN(C)CCCN1c2ccccc2CCc2ccccc21`, for which the outcome in the test on DG-75 [1], in the test with HeLa [2], in the test with HeLa [3], in the test on HeLa [4], in the test on MUTU-I [6] and in the test on MUTU-I [9] was Active. For the same compound, the result in the test with DG-75 [11], in the test with MUTU-I [14], in the test with HeLa [15], in the test on HeLa [16], in the test with DG-75 [17] and in the test with MUTU-I [18] was Active. In addition, the outcome with MUTU-I [21], with HeLa [22] and in the test on MUTU-I [24] was Active. The results for the Activity (with HeLa [5]; in the test with DG-75 [20]; in test [23]) were 61.7%, 22.8% and 66.6%, respectively. The IC50 in [7] came to 1.05 µM; in [12], 6 µM; with DG-75 [13], 1.89 µM; in the test on HeLa [19], 1.74 µM. Also, the outcome in the test with DG-75 [8] and in the test on DG-75 [10] was inactive.

With `CN(CCCN1c2ccccc2CCc2ccccc21)CCOCCOCCOCCN(C)CCCN1c2ccccc2CCc2ccccc21`, the outcome in the test on DG-75 [1], in the test on HeLa [2], in the test on HeLa [3], in the test on HeLa [4], in the test with MUTU-I [6] and in the test on MUTU-I [9] was Active. Moreover, the outcome in the test on DG-75 [11], with MUTU-I [14], with HeLa [15], with HeLa [16], in the test on DG-75 [17] and in the test on MUTU-I [18] was Active. Also, the outcome in the test on MUTU-I [21], in the test on HeLa [22] and in the test with MUTU-I [24] was Active. In addition, the Activity is recorded as 46% with HeLa [5], 54.6% in the test on DG-75 [20] and 46.3% in [23]. For the same compound, the IC50 in test [7] stood at 1.15 µM; in [12] it was 5.5 µM; in the test on DG-75 [13], 1.91 µM; in the test with HeLa [19], 1.58 µM. Further, the outcome in the test with DG-75 [8] and in the test on DG-75 [10] was inactive.

For `CNCCCN1c2ccccc2CCc2ccccc21` [DESIPRAMINE], the IC50 in test [7] was 7.94 µM; with DG-75 [13] it was 39.8 µM; in the test on HeLa [19], 17.8 µM. For the same compound, the result in the test with HeLa [16], with DG-75 [17] and in the test on MUTU-I [21] was inactive.

As to `CN(CCCN1c2ccccc2CCc2ccccc21)C(=O)COCCOCC(=O)N(C)CCCN1c2ccccc2CCc2ccccc21`, the IC50 in [7] is 5.75 µM; in test [12] it was 46 µM; in the test with DG-75 [13], 18.6 µM; in the test with HeLa [19], 22.9 µM. Also, the result with HeLa [16], with DG-75 [17] and in the test on MUTU-I [21] was inactive.

In the case of `CN(C)CCCN1c2ccccc2CCc2ccccc21` [IMIPRAMINE], the figures for the IC50 (in [7]; in the test on DG-75 [13]; in the test with HeLa [19]) were 14.1 µM, more than 50 µM and 40.7 µM, respectively. The outcome in the test with HeLa [16], in the test with DG-75 [17] and in the test with MUTU-I [21] was inactive.
